Laboratory results reported in a melting point compilation (Tetko et al.).
Each block holds one compound with its values, some of them ahead of it.

SMILES: Nc1nc(Cl)c2nc[nH]c2n1
melting point: 300 °C

SMILES: Nc1ccc(Br)nn1
melting point: 194 °C

SMILES: CCN(Cc1ccc(Cl)nc1)C(=C[N+](=O)[O-])NC
melting point: 83.5 °C

SMILES: CC(C)(C)NC(=O)C(C(F)(F)F)C(F)(F)F
melting point: 201 °C

SMILES: CC(=O)Oc1ccc(C(c2ccc(OC(C)=O)cc2)c2ccccn2)cc1
melting point: 134 °C

SMILES: NC(=O)C=Cc1ccccc1
melting point: 149 °C

SMILES: CCCCCCCCCCCCCCCC(=O)OC1CCC2(C)C(=CCC3C2CCC2(C)C(C(C)CCCC(C)C)CCC32)C1 (configuration not stated)
melting point: 75 to 77 °C

SMILES: CCSc1nnc(C(C)(C)C)c(=O)n1N
melting point: 95 °C

SMILES: CC12CCC3C(CCC4CC=CCC43C)C1CC=C2CCc1ccccc1 (configuration not stated)
melting point: 118 °C

SMILES: Clc1nc(Cl)c2nc[nH]c2n1
melting point: 184 to 186 °C

SMILES: O=C(O)COc1ccc(OCC(=O)O)cc1
melting point: 248 to 251 °C

SMILES: N#Cc1ccsc1N
melting point: 103 to 106 °C

SMILES: NC(=S)Nc1ccc(F)c(F)c1F
melting point: 162 to 165 °C

SMILES: CC(=O)/C=C/c1ccc([N+](=O)[O-])o1
melting point: 192 to 195 °C

SMILES: O=C(O)c1onc2ccccc12
melting point: 185 °C

SMILES: O=C(O)CCCCCCC(=O)c1ccccc1
melting point: 81 °C

SMILES: OCCC(F)(F)C(F)(F)C(F)(F)C(F)(F)C(F)(F)C(F)(F)C(F)(F)C(F)(F)F
melting point: 46.2 °C

SMILES: CCCCCCCCCCCCCCCCCCCCCC(=O)OC
melting point: 54 °C

SMILES: O=C(O)Cc1ccc(Oc2ccccc2)cc1
melting point: 79 to 81 °C

SMILES: COC(=O)c1ccccc1OC1OC(COC2OCC(O)C(O)C2O)C(O)C(O)C1O (configuration not stated)
melting point: 180 °C

SMILES: Cn1nc(C(F)(F)F)c(C(=O)O)c1Cl
melting point: 201 to 202 °C

SMILES: Cn1c(=O)c(C2=NNC(=O)C2=CNc2cccc3ccccc23)c(O)c2ccccc21
melting point: 292 °C

SMILES: CC1CC2C(C(O)CC3(C)C2CCC3(O)C(=O)CO)C2(C)C=CC(=O)C=C12 (configuration not stated)
melting point: 233 °C

SMILES: Cn1cc(S(=O)(=O)Cl)c(C(F)(F)F)n1
melting point: 34 to 36 °C

SMILES: c1ccc2c(c1)ccc1nc3ccc4ccccc4c3cc12
melting point: 216 °C

SMILES: O=S(=O)(c1ccccc1)c1cccs1
melting point: 123 °C

SMILES: CC(C)C[C@@H](CC#N)NC(=O)OC(C)(C)C
melting point: 75 to 77 °C

SMILES: CCCCCCCNCCCCCCC
melting point: 31.5 °C

SMILES: CC(=O)OC1C(O)C2=C(C(=O)C(OC(C)=O)C3(CC3C)C2=O)C2(C)CCC(=O)C(C)(C)C12 (configuration not stated)
melting point: 201 °C

SMILES: CCCCCCCCCCCCCN
melting point: 27.4 °C

SMILES: NC(=O)c1c(N)cccc1F
melting point: 115 to 118 °C

SMILES: COC1=CC(c2ccccc2)c2ccccc21 (configuration not stated)
melting point: 68 °C

SMILES: N#CC1(C(=O)c2ccccc2)C(c2ccc(F)cc2)NC(=O)NC1c1ccc(F)cc1 (configuration not stated)
melting point: 226 to 227 °C

SMILES: O=C(O)CNC(CO)(CO)CO
melting point: 187 °C

SMILES: CC(O)(C(=O)c1ccccc1)c1ccccc1 (configuration not stated)
melting point: 65 °C

SMILES: C#CCC1(OC(N)=O)CCCCC1
melting point: 99 °C

SMILES: BrC(Br)(Br)c1ccc2ccccc2n1
melting point: 128 °C

SMILES: Nc1cc(Cl)nc(N)n1
melting point: 201 °C

SMILES: OCc1nc2ccccc2[nH]1
melting point: 165 to 172 °C

SMILES: CC(C)(C)OC(=O)Nc1ccc(C(=O)O)cc1
melting point: 179 to 181 °C

SMILES: c1cc2c3c(c1)CCC3CCC2 (configuration not stated)
melting point: 12.8 °C

SMILES: CCCOc1ccc(C(=O)O)cc1
melting point: 145 °C

SMILES: CCCCCCCCCCCCCCCCCCSSCCCCCCCCCCCCCCCCCC
melting point: 62 °C

SMILES: NNc1nncc2ccccc12
melting point: 172 °C

SMILES: Nc1ccc(OC(F)(F)F)cc1[N+](=O)[O-]
melting point: 62 to 64 °C

SMILES: CO/C(C)=C(\C#N)c1ccccc1[N+](=O)[O-]
melting point: 66 to 69 °C

SMILES: O=C(N[C@@H](C(=O)O)c1ccccc1)OCC(Cl)(Cl)Cl
melting point: 141 to 142 °C

SMILES: N#CC(C#N)=C(SCc1ccccc1)SCc1ccccc1
melting point: 82 °C

SMILES: COc1cccc(C=O)c1OC
melting point: 52 °C

SMILES: CCCCCCCC(=O)OCCCCCC
melting point: -30.6 °C

SMILES: COc1ccc2c(c1)C(=O)N(CCc1ccc(S(=O)(=O)NC(=O)NC3CCCCC3)cc1)C(=O)C2(C)C
melting point: 181 °C

SMILES: O=C(O)C(=Cc1cccc([N+](=O)[O-])c1)c1cccc([N+](=O)[O-])c1
melting point: 150 to 160 °C

SMILES: O=C(OCCc1ccc(CCOC(=O)c2ccccc2)cc1)c1ccccc1
melting point: 137 °C

SMILES: Oc1ccc(C2SCCS2)cc1
melting point: 118 °C

SMILES: NC(=S)c1ccno1
melting point: 163 °C

SMILES: O=[N+]([O-])c1cccc(OCCN2CCOCC2)c1
melting point: 50 to 53 °C

SMILES: COc1cc(C=O)ccc1OC1OC(CO)C(O)C(O)C1O (configuration not stated)
melting point: 189 °C

SMILES: COC(=O)c1scc(S(C)(=O)=O)c1N
melting point: 145 °C

SMILES: COc1cc(OC)nc(NC(=O)NS(=O)(=O)N(C)S(C)(=O)=O)n1
melting point: 179 °C

SMILES: O=C(O)c1ccnc(N2CCCCC2)c1
melting point: 167 to 168 °C

SMILES: CC(C)(C)C(=O)NNCc1ccccc1
melting point: 68.5 °C

SMILES: CCc1ccnc(N)c1
melting point: 67 °C

SMILES: CCCCCCCCCCCCc1ccc(N)cc1
melting point: 40.5 °C

SMILES: FC(F)(F)C(F)(F)C(F)(F)C(F)(F)F
melting point: -128 °C

The next lines start with the values.

melting point: 104 °C
SMILES: COC(=O)c1sc(SC)nc1N

melting point: 89 °C
SMILES: Cc1cc(OC(=O)C(F)(F)F)c(C)cc1OC(=O)C(F)(F)F

melting point: 176 to 177 °C
SMILES: Cc1cc(O)cc(C)c1C#N

melting point: 300 °C
SMILES: Cc1ccc2c(O)c(-c3ccccc3)c(=O)[nH]c2c1

melting point: 208 to 210 °C
SMILES: CC1(C)CC(=O)c2cc(-c3ccccc3)n(-c3ccc(F)cc3)c2C1

melting point: 71 to 74 °C
SMILES: Cc1nc(-c2ccc(CO)cc2)cs1

melting point: 116 to 119 °C
SMILES: CCCc1c(C(=O)O)cnn1-c1ccc(Cl)cc1

melting point: 38 °C
SMILES: Cc1cc(Br)ncc1Br

melting point: 105 °C
SMILES: CC12CCC(c3c(Br)cc(=O)oc31)C2(C)C (configuration not stated)

melting point: 29 °C
SMILES: COC(=O)c1ccc(C)c(Cl)c1

melting point: 234 °C
SMILES: O=C(O)CCc1ccc2c(c1)CCC(=O)N2

melting point: 289 °C
SMILES: N#Cc1cc2c(=O)oc3ccccc3c2nc1N

melting point: 112 to 115 °C
SMILES: COC(=O)c1[nH]c2ccccc2c1C(=O)OC

melting point: 76 °C
SMILES: C=C1C(=O)OC2CC3(C)CCCC(C)C3=CC12 (configuration not stated)

melting point: 114 °C
SMILES: Cc1ccc(NC(=O)CCC2C(=O)C3(C)CCC2C3(C)C)cc1 (configuration not stated)

melting point: 48 °C
SMILES: Cc1cc(C)c2c(c1)CC2=O

melting point: 134 to 137 °C
SMILES: CCOC(=O)c1c(SC)nc2ccc(Cl)cc2c1Cl

melting point: 68 to 71 °C
SMILES: CCOc1cc2c(cc1OCC)C(C)=NCC2

melting point: 150 to 152 °C
SMILES: CCOC(=O)c1c(NC(=O)Nc2ccccc2)sc2c1CCCC2

melting point: 166 to 170 °C
SMILES: Cc1ccc(C2(C(=O)O)CCCCC2)cc1

melting point: 95 to 98 °C
SMILES: CCCSc1sc(C(=O)OC)c2c1C(=O)CC(C)(C)C2

melting point: 140 °C
SMILES: Oc1ccc(O)c(O)c1

melting point: 92 to 93.5 °C
SMILES: CCOC(=O)c1cnc2c(c(C)nn2C)c1Oc1ccc(OC)cc1

melting point: 236 °C
SMILES: COC(=O)C1=C(C)NC(=O)N(C=O)C1c1ccccc1 (configuration not stated)

melting point: 135 °C
SMILES: NC(=O)c1c(F)ccc(Cl)c1F

melting point: 2 °C
SMILES: Cc1cccc(C(=O)Cl)c1C

melting point: 77.5 °C
SMILES: COc1ccc2c(OC(C)=O)c(OC)c(OC)c(OC(C)=O)c2c1

melting point: 33 to 36 °C
SMILES: Cc1cc(C(C)(C)C)nc(C(C)(C)C)c1
